ChEMBL document CHEMBL5344406, “1,2,3-Triazole-containing hybrids with potential antibacterial activity against ESKAPE pathogens” (2022)
≈ marks a conversion by molar mass, not a printed value. One block for each compound: values may come before it.

Columns and labels:
Type in all cases: functional
Staphylococcus aureus [1] = assay: Antibacterial activity against Ciprofloxacin-resistant Staphylococcus aureus assessed as bacterial growth inhibition
Acinetobacter baumannii = assay: Antibacterial activity against Ciprofloxacin-resistant Acinetobacter baumannii assessed as bacterial growth inhibition
Escherichia coli [2] = assay: Antibacterial activity against Ciprofloxacin-resistant Escherichia coli assessed as bacterial growth inhibition
Bacillus subtilis [3] = assay: Antibacterial activity against Bacillus subtilis assessed as bacterial growth inhibition incubated for 24 hrs by serial dilution method
Salmonella enterica = assay: Antibacterial activity against Salmonella enterica assessed as bacterial growth inhibition incubated for 24 hrs by serial dilution method
Staphylococcus aureus [4] = assay: Antibacterial activity against Staphylococcus aureus assessed as bacterial growth inhibition incubated for 24 hrs by serial dilution method
Escherichia coli [5] = assay: Antibacterial activity against Escherichia coli assessed as bacterial growth inhibition incubated for 24 hrs by serial dilution method
Pseudomonas aeruginosa [6] = assay: Antibacterial activity against Pseudomonas aeruginosa assessed as bacterial growth inhibition incubated for 24 hrs by serial dilution method
Escherichia coli [7] = assay: Antibacterial activity against Escherichia coli JM109 assessed as bacterial growth inhibition incubated for 18 to 20 hrs by broth microdilution method; conditions: time 18-20 hrs
Bacillus subtilis [8] = assay: Antibacterial activity against Bacillus subtilis assessed as bacterial growth inhibition incubated for 18 to 20 hrs by broth microdilution method; conditions: time 18-20 hrs
Escherichia coli [9] = assay: Potency index, ratio of Streptomycin MIC to test compound MIC for antibacterial activity against Escherichia coli JM109 assessed as bacterial growth inhibition incubated for 18 to 20 hrs by broth microdilution method; conditions: time 18-20 hrs
Bacillus subtilis [10] = assay: Potency index, ratio of Streptomycin MIC to test compound MIC for antibacterial activity against Bacillus subtilis assessed as bacterial growth inhibition incubated for 18 to 20 hrs by broth microdilution method; conditions: time 18-20 hrs
Staphylococcus aureus [11] = assay: Antibacterial activity against Staphylococcus aureus 209p ATCC 6538P assessed as bacterial growth inhibition incubated for 1 to 2 days by serial dilution method; conditions: time 1-2 day
Staphylococcus aureus [12] = assay: Antibacterial activity against Staphylococcus aureus C-18 clinical isolate assessed as bacterial growth inhibition incubated for 1 to 2 days by serial dilution method; conditions: time 1-2 day
Staphylococcus aureus [13] = assay: Antibacterial activity against Staphylococcus aureus Viotko assessed as bacterial growth inhibition incubated for 1 to 2 days by serial dilution method; conditions: time 1-2 day
Pseudomonas aeruginosa [14] = assay: Antibacterial activity against Pseudomonas aeruginosa assessed as bacterial growth inhibition by serial dilution method
Staphylococcus aureus [15] = assay: Antibacterial activity against Staphylococcus aureus MTCC 737 assessed as bacterial growth inhibition by serial dilution method
Escherichia coli [16] = assay: Antibacterial activity against Escherichia coli MTCC 1687 assessed as bacterial growth inhibition by serial dilution method
Staphylococcus aureus [17] = assay: Potency index, ratio of Ciprofloxacin MIC to test compound MIC for antibacterial activity against Staphylococcus aureus MTCC 737 assessed as bacterial growth inhibition by serial dilution method
Pseudomonas aeruginosa [18] = assay: Potency index, ratio of Ciprofloxacin MIC to test compound MIC for antibacterial activity against Pseudomonas aeruginosa assessed as bacterial growth inhibition by serial dilution method
Escherichia coli [19] = assay: Potency index, ratio of Ciprofloxacin MIC to test compound MIC for antibacterial activity against Escherichia coli MTCC 1687 assessed as bacterial growth inhibition by serial dilution method
Escherichia coli [20] = assay: Antibacterial activity against Escherichia coli MTCC 443 assessed as bacterial growth inhibition by broth microdilution method
Pseudomonas aeruginosa [21] = assay: Antibacterial activity against Pseudomonas aeruginosa MTCC 1688 assessed as bacterial growth inhibition by broth microdilution method
Streptococcus pyogenes [22] = assay: Antibacterial activity against Streptococcus pyogenes MTCC 442 assessed as bacterial growth inhibition by broth microdilution method
Staphylococcus aureus [23] = assay: Antibacterial activity against Staphylococcus aureus MTCC 96 assessed as bacterial growth inhibition by broth microdilution method
Escherichia coli [24] = assay: Potency index, ratio of Ciprofloxacin MIC to test compound MIC for antibacterial activity against Escherichia coli MTCC 443 assessed as bacterial growth inhibition by broth microdilution method
Pseudomonas aeruginosa [25] = assay: Potency index, ratio of Ciprofloxacin MIC to test compound MIC for antibacterial activity against Pseudomonas aeruginosa MTCC 1688 assessed as bacterial growth inhibition by broth microdilution method
Streptococcus pyogenes [26] = assay: Potency index, ratio of Ciprofloxacin MIC to test compound MIC for antibacterial activity against Streptococcus pyogenes MTCC 442 assessed as bacterial growth inhibition by broth microdilution method
Staphylococcus aureus [27] = assay: Potency index, ratio of Ciprofloxacin MIC to test compound MIC for antibacterial activity against Staphylococcus aureus MTCC 96 assessed as bacterial growth inhibition by broth microdilution method
Staphylococcus aureus [28] = assay: Antibacterial activity against Staphylococcus aureus MTCC 7443 assessed as bacterial growth inhibition incubated for 24 hrs by serial dilution method
Bacillus subtilis [29] = assay: Antibacterial activity against Bacillus subtilis MTCC 441 assessed as bacterial growth inhibition incubated for 24 hrs by serial dilution method
Staphylococcus aureus [30] = assay: Antibacterial activity against methicillin-resistant Staphylococcus aureus assessed as bacterial growth inhibition

SMILES: CCOc1c(NC(=O)c2ccc(NC(=O)c3ccc(NC(=O)[C@H](Cc4c[nH]nn4)NC(=O)/C(C)=C/c4ccc(O)cc4)cc3)c(OCC)c2O)ccc(C(=O)O)c1O
- MIC (Staphylococcus aureus [1]): 0.031 µg/mL (≈ 0.0391 µM)
- MIC (Acinetobacter baumannii): 0.031 µg/mL (≈ 0.0391 µM)
- MIC (Escherichia coli [2]): 0.031 µg/mL (≈ 0.0391 µM)

SMILES: CC(C)C[C@H](NC(=O)OC(C)(C)C)C(=O)OCc1cn(Cc2ccc(F)cc2)nn1
- MIC (Bacillus subtilis [3]): 3.12 µg/mL (≈ 7.42 µM)
- MIC (Salmonella enterica): 3.12 µg/mL (≈ 7.42 µM)
- MIC (Staphylococcus aureus [4]): 3.12 µg/mL (≈ 7.42 µM)
- MIC (Escherichia coli [5]): 3.12 µg/mL (≈ 7.42 µM)
- MIC (Pseudomonas aeruginosa [6]): 3.12 µg/mL (≈ 7.42 µM)

SMILES: CN(C)Cc1cn([C@@H]2C(=O)N3[C@@H]2SC(C)(C)[C@@H]3C(=O)O)nn1
- MIC (Escherichia coli [20]): 0.5 µg/mL (≈ 1.54 µM)
- MIC (Pseudomonas aeruginosa [21]): 0.5 µg/mL (≈ 1.54 µM)
- MIC (Streptococcus pyogenes [22]): 0.5 µg/mL (≈ 1.54 µM)
- MIC (Staphylococcus aureus [23]): 0.5 µg/mL (≈ 1.54 µM)
- Ratio (Escherichia coli [24]): 2.5
- Ratio (Pseudomonas aeruginosa [25]): 2.5
- Ratio (Streptococcus pyogenes [26]): 2.5
- Ratio (Staphylococcus aureus [27]): 2.5

SMILES: CC(C)(NS(=O)(=O)c1ccc(Br)cc1)c1cn(-c2ccc(Br)cc2)nn1
- MIC (Staphylococcus aureus [28]): 12.5 µg/mL (≈ 25 µM)
- MIC (Bacillus subtilis [29]): 12.5 µg/mL (≈ 25 µM)

SMILES: O=C1C(=O)N(CCn2cc(COc3cccc4cccnc34)nn2)c2c(Br)cc(Br)cc21
- MIC (Staphylococcus aureus [30]): 15.2 µg/mL (≈ 27.3 µM)

Now from value to compound, other results behind:

- MIC (Escherichia coli [7]): 0.15 µg/mL (≈ 0.253 µM)
- MIC (Bacillus subtilis [8]): 0.02 µg/mL (≈ 0.0337 µM)
SMILES: Cc1cc2cc(C#CCCCCCCc3cn(C4(C(C)C)Oc5cc6oc(=O)ccc6cc5C4=O)nn3)c(=O)oc2cc1O (configuration not stated)
- Ratio (Escherichia coli [9]): 6.7
- Ratio (Bacillus subtilis [10]): 100

- MIC (Staphylococcus aureus [11]): 0.16 µg/mL (≈ 0.394 µM)
- MIC (Staphylococcus aureus [12]): 0.65 µg/mL (≈ 1.6 µM)
- MIC (Staphylococcus aureus [13]): 3.75 µg/mL (≈ 9.23 µM)
SMILES: O=C(O)c1ccc(-n2cc(CNC(=O)c3cc4ccc(=O)oc4cc3O)nn2)cc1

- MIC (Pseudomonas aeruginosa [14]): 6.25 µg/mL (≈ 16.4 µM)
- MIC (Staphylococcus aureus [15]): 6.25 µg/mL (≈ 16.4 µM)
- MIC (Escherichia coli [16]): 6.25 µg/mL (≈ 16.4 µM)
SMILES: COc1cccc2cc(C(=O)c3cn(-c4ccc(Cl)cc4)nn3)c(=O)oc12
- Ratio (Staphylococcus aureus [17]): 2
- Ratio (Pseudomonas aeruginosa [18]): 2
- Ratio (Escherichia coli [19]): 2
